What all share (assay): HTRF kinase assay
Holding throughout (conditions): pH 7; 25 °C
Background: Time-resolved FRET reads energy transfer from a long-lived donor to a nearby acceptor.

The target of experiment [1] is Hepatocyte growth factor receptor (Homo sapiens, UniProt P08581). How it is done:
The c-Met kinase activity was evaluated by homogeneous time-resolved fluorescence (HTRF) assays. In a 384-well plate, 20 µg/mL (Glue, Tyr) 4:1 was added, followed by the addition of 50 µL of 10 mM ATP solution diluted in kinase reaction buffer (50 mM HEPES, pH 7.0, […], and 0.1% NaN3) into each well. Various concentrations of compounds diluted in 10 µL of 1% DMSO (v/v) […]. The reaction was initiated by the addition of purified c-Met kinase diluated in 39 µL of kinase reaction buffer solution. The reaction was incubated for 30 min at 25 °C and stopped by the addition of 5 µL of Streptavidin-XL665 and 5 µL Tk Antibody Cryptate working solution to all of the wells.

Experiment [2] has as its target Vascular endothelial growth factor receptor 2 (Homo sapiens, UniProt P35968).
Experiment [3] deals with T1, Mast/stem cell growth factor receptor Kit [1-973] (Homo sapiens, UniProt P10721).
T1 construct: 1-973

For experiment [4], the target named is Vascular endothelial growth factor receptor 1 (Homo sapiens, UniProt P17948).
Experiment [5] deals with T2, Receptor-type tyrosine-protein kinase FLT3 (Homo sapiens, UniProt P36888).
T2 sequence (P36888 whole entry): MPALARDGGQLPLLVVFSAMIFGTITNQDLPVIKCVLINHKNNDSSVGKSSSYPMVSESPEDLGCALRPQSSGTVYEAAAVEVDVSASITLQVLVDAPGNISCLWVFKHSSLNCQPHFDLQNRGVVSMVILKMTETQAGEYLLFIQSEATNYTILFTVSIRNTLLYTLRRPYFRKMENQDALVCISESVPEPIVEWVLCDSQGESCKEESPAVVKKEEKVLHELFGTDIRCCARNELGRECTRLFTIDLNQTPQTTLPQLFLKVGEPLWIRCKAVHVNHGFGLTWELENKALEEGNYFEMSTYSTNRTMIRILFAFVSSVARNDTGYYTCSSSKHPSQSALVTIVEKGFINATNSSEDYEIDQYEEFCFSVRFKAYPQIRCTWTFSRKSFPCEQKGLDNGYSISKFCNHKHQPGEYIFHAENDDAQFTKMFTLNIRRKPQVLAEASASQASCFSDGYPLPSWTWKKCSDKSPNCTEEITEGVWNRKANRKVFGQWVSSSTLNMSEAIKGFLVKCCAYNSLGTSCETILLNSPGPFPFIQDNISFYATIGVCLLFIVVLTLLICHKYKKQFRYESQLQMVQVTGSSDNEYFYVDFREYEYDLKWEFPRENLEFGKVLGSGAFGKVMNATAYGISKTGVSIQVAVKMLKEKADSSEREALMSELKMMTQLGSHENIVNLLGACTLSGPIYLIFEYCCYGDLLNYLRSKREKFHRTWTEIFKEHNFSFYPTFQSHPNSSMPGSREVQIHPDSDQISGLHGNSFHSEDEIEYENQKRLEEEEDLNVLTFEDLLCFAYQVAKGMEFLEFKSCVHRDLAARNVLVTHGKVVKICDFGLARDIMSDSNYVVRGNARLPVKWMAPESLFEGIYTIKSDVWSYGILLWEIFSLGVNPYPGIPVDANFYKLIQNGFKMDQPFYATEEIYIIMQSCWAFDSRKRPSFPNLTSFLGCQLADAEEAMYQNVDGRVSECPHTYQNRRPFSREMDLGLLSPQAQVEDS

The target of experiment [6] is Macrophage-stimulating protein receptor (Homo sapiens, UniProt Q04912).
For experiment [7], the target named is T3, Platelet-derived growth factor receptor alpha [1-973] (Homo sapiens, UniProt P16234).
T3 construct: 1-973

For experiment [8], the target named is T4, Epidermal growth factor receptor [1-973] (Homo sapiens, UniProt P00533).
T4 construct: 1-973

Some results are limits rather than exact numbers.

Chain of Hepatocyte growth factor receptor (P08581 whole entry): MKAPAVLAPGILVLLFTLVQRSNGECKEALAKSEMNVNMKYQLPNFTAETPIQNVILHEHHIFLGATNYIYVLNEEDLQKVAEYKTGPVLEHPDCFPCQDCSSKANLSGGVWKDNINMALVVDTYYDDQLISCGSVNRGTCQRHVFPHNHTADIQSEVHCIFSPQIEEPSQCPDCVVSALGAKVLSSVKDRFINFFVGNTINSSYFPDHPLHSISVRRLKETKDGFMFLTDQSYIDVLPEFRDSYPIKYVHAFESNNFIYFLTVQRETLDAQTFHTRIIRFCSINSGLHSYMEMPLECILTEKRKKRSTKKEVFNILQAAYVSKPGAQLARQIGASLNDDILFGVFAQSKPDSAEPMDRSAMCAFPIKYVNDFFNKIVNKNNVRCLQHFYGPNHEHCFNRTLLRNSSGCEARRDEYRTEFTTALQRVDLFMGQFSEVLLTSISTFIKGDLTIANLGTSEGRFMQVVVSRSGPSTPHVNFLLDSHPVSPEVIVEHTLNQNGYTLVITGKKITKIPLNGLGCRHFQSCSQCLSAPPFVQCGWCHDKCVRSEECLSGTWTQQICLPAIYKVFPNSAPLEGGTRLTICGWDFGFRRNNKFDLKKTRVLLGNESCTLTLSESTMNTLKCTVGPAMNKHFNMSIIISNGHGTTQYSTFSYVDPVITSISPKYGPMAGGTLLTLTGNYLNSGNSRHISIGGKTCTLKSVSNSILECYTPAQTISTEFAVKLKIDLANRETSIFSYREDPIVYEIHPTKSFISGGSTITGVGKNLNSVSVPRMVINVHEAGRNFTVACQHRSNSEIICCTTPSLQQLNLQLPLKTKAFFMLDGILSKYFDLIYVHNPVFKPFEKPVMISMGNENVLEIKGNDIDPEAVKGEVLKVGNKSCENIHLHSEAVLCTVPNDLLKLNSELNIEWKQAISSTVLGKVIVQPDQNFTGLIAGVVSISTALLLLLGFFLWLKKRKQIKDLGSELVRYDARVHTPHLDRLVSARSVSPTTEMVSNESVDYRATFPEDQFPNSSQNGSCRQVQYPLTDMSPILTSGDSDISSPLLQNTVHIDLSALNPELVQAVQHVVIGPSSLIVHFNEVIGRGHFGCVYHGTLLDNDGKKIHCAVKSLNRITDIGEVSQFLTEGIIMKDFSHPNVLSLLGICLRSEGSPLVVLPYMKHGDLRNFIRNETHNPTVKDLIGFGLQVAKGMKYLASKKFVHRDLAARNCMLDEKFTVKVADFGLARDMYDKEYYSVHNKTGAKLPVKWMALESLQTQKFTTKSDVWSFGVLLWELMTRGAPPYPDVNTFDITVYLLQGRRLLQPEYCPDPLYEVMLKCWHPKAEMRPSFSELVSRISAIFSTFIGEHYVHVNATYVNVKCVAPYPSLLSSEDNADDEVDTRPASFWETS
T1 sequence (P10721 1-973): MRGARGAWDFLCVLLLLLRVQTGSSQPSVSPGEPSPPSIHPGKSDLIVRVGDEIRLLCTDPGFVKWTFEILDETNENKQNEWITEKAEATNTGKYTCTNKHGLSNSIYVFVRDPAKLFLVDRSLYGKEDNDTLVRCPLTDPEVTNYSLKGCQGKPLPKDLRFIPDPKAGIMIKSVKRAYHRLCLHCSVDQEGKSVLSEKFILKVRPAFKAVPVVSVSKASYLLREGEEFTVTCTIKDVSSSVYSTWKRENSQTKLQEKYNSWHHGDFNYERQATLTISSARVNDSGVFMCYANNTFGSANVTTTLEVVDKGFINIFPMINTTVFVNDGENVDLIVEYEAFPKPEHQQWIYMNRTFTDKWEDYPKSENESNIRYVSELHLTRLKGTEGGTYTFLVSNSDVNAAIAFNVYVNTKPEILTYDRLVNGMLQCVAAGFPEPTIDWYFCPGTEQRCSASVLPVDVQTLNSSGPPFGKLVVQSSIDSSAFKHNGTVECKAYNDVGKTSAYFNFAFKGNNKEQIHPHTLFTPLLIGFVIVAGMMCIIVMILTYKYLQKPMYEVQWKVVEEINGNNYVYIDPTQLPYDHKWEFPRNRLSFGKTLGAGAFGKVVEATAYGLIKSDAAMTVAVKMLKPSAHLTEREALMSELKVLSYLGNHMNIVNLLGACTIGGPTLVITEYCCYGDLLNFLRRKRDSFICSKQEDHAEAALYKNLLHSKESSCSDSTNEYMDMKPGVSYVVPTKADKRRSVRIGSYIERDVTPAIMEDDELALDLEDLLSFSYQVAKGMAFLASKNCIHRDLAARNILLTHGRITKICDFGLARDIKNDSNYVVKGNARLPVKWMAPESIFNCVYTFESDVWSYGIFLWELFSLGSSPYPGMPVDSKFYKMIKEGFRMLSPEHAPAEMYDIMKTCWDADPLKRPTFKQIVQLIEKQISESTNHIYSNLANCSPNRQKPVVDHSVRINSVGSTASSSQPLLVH
Chain of Vascular endothelial growth factor receptor 2 (P35968 whole entry): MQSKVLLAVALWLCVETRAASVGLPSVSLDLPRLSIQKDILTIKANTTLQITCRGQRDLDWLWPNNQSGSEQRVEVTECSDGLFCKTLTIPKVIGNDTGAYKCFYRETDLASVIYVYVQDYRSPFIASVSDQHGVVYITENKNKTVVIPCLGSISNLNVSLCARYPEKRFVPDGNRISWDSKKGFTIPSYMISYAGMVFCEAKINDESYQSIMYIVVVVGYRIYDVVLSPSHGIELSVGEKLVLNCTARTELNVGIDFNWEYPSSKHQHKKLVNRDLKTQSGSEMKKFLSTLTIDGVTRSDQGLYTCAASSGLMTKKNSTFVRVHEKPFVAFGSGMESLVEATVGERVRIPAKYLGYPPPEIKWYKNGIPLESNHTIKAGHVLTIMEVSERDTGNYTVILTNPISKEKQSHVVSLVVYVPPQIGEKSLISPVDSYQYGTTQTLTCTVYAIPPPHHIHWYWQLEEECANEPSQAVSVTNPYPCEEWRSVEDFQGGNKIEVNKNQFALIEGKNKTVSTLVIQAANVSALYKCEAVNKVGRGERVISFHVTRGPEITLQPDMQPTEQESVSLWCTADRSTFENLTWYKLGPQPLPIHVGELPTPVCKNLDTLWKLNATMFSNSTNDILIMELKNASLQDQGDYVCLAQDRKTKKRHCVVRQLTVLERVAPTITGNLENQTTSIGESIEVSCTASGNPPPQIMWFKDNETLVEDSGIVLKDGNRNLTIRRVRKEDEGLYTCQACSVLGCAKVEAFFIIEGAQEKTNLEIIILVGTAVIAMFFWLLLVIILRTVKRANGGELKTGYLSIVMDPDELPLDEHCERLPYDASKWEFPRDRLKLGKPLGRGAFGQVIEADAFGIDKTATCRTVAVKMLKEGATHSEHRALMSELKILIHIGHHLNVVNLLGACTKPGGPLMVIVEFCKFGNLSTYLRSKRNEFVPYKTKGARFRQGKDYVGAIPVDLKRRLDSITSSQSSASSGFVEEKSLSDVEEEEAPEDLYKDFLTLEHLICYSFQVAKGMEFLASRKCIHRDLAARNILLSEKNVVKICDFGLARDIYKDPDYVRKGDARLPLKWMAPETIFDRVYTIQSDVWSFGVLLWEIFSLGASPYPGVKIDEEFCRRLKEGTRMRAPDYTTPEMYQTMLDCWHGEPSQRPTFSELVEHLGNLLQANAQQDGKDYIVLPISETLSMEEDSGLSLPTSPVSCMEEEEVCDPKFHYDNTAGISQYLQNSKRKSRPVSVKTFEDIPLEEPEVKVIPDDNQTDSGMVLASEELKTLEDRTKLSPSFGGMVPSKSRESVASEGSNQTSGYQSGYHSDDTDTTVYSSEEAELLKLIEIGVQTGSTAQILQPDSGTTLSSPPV
T3 sequence (P16234 1-973): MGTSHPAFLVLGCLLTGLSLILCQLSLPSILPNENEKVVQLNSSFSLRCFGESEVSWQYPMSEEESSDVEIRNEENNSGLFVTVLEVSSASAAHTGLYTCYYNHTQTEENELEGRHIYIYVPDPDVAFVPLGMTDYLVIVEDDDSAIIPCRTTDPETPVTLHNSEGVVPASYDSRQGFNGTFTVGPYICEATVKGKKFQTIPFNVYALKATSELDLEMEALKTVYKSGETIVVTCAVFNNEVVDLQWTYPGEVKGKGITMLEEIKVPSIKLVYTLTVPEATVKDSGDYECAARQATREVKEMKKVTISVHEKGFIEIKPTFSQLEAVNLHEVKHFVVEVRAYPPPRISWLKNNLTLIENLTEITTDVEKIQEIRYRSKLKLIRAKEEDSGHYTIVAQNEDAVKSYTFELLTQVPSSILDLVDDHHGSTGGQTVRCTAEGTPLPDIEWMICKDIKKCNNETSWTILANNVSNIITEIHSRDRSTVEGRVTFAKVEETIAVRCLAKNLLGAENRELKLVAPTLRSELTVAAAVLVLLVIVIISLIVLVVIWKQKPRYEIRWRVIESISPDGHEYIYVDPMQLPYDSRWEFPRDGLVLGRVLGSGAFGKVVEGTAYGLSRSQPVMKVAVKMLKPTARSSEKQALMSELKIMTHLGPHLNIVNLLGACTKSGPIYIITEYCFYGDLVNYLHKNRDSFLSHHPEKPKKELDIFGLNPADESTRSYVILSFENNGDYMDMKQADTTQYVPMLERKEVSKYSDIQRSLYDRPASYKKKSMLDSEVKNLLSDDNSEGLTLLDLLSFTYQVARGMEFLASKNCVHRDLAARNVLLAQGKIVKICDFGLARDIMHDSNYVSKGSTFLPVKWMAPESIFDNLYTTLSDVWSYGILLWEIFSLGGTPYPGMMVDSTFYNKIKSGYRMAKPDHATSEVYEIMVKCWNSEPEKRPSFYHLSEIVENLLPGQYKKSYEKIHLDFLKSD

A word on the IC50: it is the midpoint of a concentration-inhibition curve. On to `COc1cc2c(Oc3ccc(N=Cc4c(C)[nH]n(-c5ccccc5C(F)(F)F)c4=O)cc3F)ccnc2cc1OCCCN1CCCC1` [(Z)-4-(((3-fluoro-4-((6-methoxy-7-(3-(pyrrolidin-1-yl)propoxy)quinolin-4-yl)oxy)phenyl)amino)methylene)-3-methyl-1-(2-(trifluoromethyl)phenyl)-1H-pyrazol-5(4H)-one (13)], for which, in experiment [1], the IC50 is 5.04 nM.
Same read-out and setting: the value for `COc1cc2c(Oc3ccc(N=Cc4c(O)n(-c5ccccc5F)c(=O)n4C)cc3F)ccnc2cc1OCCCN1CCOCC1` [(E)-5-(((3-fluoro-4-((6-methoxy-7-(3-morpholinopropoxy)quinolin-4-yl)oxy)phenyl)amino)methylene)-3-(2-fluorophenyl)-1-methylimidazolidine-2,4-dione (40)] was 8.78 nM; that for `COc1cc2c(Oc3ccc(N=Cc4c(C)[nH]n(-c5ccccc5C(F)(F)F)c4=O)cc3F)ccnc2cc1OCCCN1CCCCC1` [(Z)-4-(((3-fluoro-4-((6-methoxy-7-(3-(piperidin-1-yl)propoxy)quinolin-4-yl)oxy)phenyl)amino)methylene)-3-methyl-1-(2-(trifluoromethyl)phenyl)-1H-pyrazol-5(4H)-one (21)] was 6.63 nM.
On to `COc1cc2c(Oc3ccc(N=Cc4c(C)[nH]n(-c5ccccc5C(F)(F)F)c4=O)cc3F)ccnc2cc1OCCCN1CCOCC1` [(Z)-4-(((3-fluoro-4-((6-methoxy-7-(3-morpholinopropoxy)quinolin-4-yl)oxy)phenyl)amino)methylene)-3-methyl-1-(2-(trifluoromethyl)phenyl)-1H-pyrazol-5(4H)-one (17)], for which the 50% inhibitory concentration (IC50) in experiment [2] came out at 326 nM; in experiment [3], 2.3 nM; in experiment [4] it was 8.56 nM; in experiment [5], 8.38 nM; in experiment [6] it was 4.24 nM; in experiment [7], 32.2 nM. Also, the figures for the IC50 in experiment [8] and in experiment [1] were over 10000 nM and 2.2 nM, respectively.
`COc1cc2c(Oc3ccc(N=Cc4c(O)n(-c5ccccc5C(F)(F)F)c(=O)n4C)cc3F)ccnc2cc1OCCCN1CCCC1` [(E)-5-(((3-fluoro-4-((6-methoxy-7-(3-(pyrrolidin-1-yl)propoxy)quinolin-4-yl)oxy)phenyl)amino)methylene)-1-methyl-3-(2-(trifluoromethyl)phenyl)imidazolidine-2,4-dione (38)] gave an IC50 in experiment [1] of 2.75 nM.

(Values after BindingDB's records for doi:10.1016/j.bioorg.2014.07.011 (Shenyang Pharmaceutical University, 2014).)
